Experimental data published in the NIST ThermoML archive (doi:10.1016/j.jct.2013.02.017).
Numbers after ± are expanded uncertainties.

Assay: molar heat capacity at constant pressure
Details: 101.33 kPa, relaxation calorimetry - Quantum Design PPMS

O=P([O-])([O-])[O-].[Fe+3] [iron(III) phosphate]
molar heat capacity at constant pressure [J/K/mol]
Details | Crystal 1 | Crystal 2
1 K | – | 0.003782 ± 0.00083
1.886 K | – | 0.04093 ± 0.0043
1.997 K | – | 0.04782 ± 0.005
2.181 K | – | 0.0617 ± 0.0064
2.476 K | – | 0.09126 ± 0.0094
2.736 K | – | 0.127 ± 0.013
3 K | – | 0.18 ± 0.019
3.028 K | – | 0.1804 ± 0.019
3.36 K | – | 0.2601 ± 0.027
3.752 K | – | 0.3807 ± 0.039
4 K | – | 0.4766 ± 0.049
4.187 K | – | 0.5478 ± 0.055
4.659 K | – | 0.7673 ± 0.077
4.845 K | – | 0.8619 ± 0.087
5 K | – | 0.9387 ± 0.096
5.18 K | – | 1.047 ± 0.11
5.77 K | – | 1.391 ± 0.14
6 K | – | 1.539 ± 0.16
6.414 K | – | 1.814 ± 0.18
6.798 K | – | 2.084 ± 0.21
7 K | – | 2.22 ± 0.23
7.132 K | – | 2.309 ± 0.23
7.933 K | – | 2.865 ± 0.29
8 K | – | 2.913 ± 0.3
8.77 K | – | 3.466 ± 0.35
8.832 K | – | 3.516 ± 0.35
9 K | – | 3.635 ± 0.37
10 K | – | 4.367 ± 0.11
10.05 K | – | 4.403 ± 0.44
11 K | – | 5.121 ± 0.12
11.15 K | – | 5.235 ± 0.52
12 K | – | 5.897 ± 0.14
12.38 K | – | 6.189 ± 0.62
12.94 K | – | 6.616 ± 0.66
13 K | – | 6.67 ± 0.16
13.73 K | – | 7.26 ± 0.73
14 K | – | 7.443 ± 0.18
14.43 K | – | 7.762 ± 0.78
14.95 K | – | 8.294 ± 0.83
15 K | – | 8.323 ± 0.2
15.43 K | – | 8.719 ± 0.87
15.94 K | – | 9.181 ± 0.92
16 K | – | 9.243 ± 0.22
16.43 K | – | 9.674 ± 0.97
16.95 K | – | 10.23 ± 1
17 K | – | 10.28 ± 0.25
17.45 K | – | 10.8 ± 1.1
17.84 K | – | 11.2 ± 1.1
18 K | – | 11.49 ± 0.28
18.13 K | – | 11.71 ± 1.2
18.45 K | – | 12.08 ± 1.2
18.82 K | – | 12.45 ± 1.2
19 K | – | 12.58 ± 0.3
19.22 K | – | 12.73 ± 1.3
19.66 K | – | 13.2 ± 1.3
19.99 K | – | 13.49 ± 1.3
20 K | – | 13.57 ± 0.33
20.25 K | – | 13.97 ± 1.4
20.64 K | – | 14.43 ± 1.4
20.82 K | – | 14.73 ± 1.5
21.1 K | – | 15.1 ± 1.5
21.5 K | – | 15.55 ± 1.6
21.71 K | – | 16.04 ± 1.6
21.92 K | – | 16.34 ± 1.6
22.11 K | – | 16.68 ± 0.34
22.32 K | – | 17.08 ± 0.34
22.51 K | – | 17.48 ± 0.35
22.73 K | – | 17.86 ± 0.36
22.92 K | – | 18.38 ± 0.37
23.11 K | – | 18.7 ± 0.38
23.36 K | – | 19.34 ± 0.39
23.55 K | – | 19.72 ± 0.4
23.76 K | – | 20.25 ± 0.41
23.95 K | – | 20.84 ± 0.42
24.15 K | – | 21.42 ± 0.43
24.38 K | – | 21.93 ± 0.44
24.61 K | – | 22.61 ± 0.46
24.87 K | – | 23.08 ± 0.46
25 K | 23.11 ± 0.56 | 23.11 ± 0.56
25.08 K | 23.28 ± 0.5 | –
25.18 K | 22.8 ± 0.49 | –
25.4 K | 21.44 ± 0.46 | –
25.43 K | 20.48 ± 0.43 | –
25.62 K | 18.26 ± 0.39 | –
25.68 K | 17.59 ± 0.38 | –
25.72 K | 17.26 ± 0.37 | –
25.94 K | 15.76 ± 0.33 | –
25.99 K | 15.49 ± 0.33 | –
26.15 K | 14.92 ± 0.32 | –
26.41 K | 14.37 ± 0.29 | –
26.94 K | 13.87 ± 0.28 | –
27.46 K | 13.73 ± 0.28 | –
27.94 K | 13.72 ± 0.27 | –
28.45 K | 13.76 ± 0.28 | –
28.97 K | 13.89 ± 0.28 | –
29.45 K | 14.01 ± 0.28 | –
29.98 K | 14.01 ± 0.28 | –
30 K | 14.02 ± 0.34 | –
30.99 K | 14.13 ± 0.28 | –
32.01 K | 14.38 ± 0.29 | –
33.01 K | 14.68 ± 0.29 | –
34.02 K | 15.04 ± 0.3 | –
35 K | 15.41 ± 0.37 | –
35.05 K | 15.43 ± 0.31 | –
36.05 K | 15.83 ± 0.32 | –
37.06 K | 16.23 ± 0.33 | –
38.07 K | 16.64 ± 0.33 | –
39.08 K | 17.07 ± 0.34 | –
40 K | 17.52 ± 0.42 | –
40.08 K | 17.53 ± 0.35 | –
41.1 K | 17.99 ± 0.36 | –
42.11 K | 18.43 ± 0.37 | –
43.12 K | 18.88 ± 0.38 | –
44.12 K | 19.31 ± 0.39 | –
45 K | 19.76 ± 0.47 | –
45.14 K | 19.79 ± 0.4 | –
46.14 K | 20.26 ± 0.41 | –
47.17 K | 20.76 ± 0.41 | –
48.16 K | 21.23 ± 0.42 | –
49.19 K | 21.7 ± 0.43 | –
50 K | 22.04 ± 0.48 | –
50.22 K | 22.15 ± 0.44 | –
53.7 K | 23.85 ± 0.48 | –
55 K | 24.35 ± 0.54 | –
59.64 K | 26.61 ± 0.53 | –
60 K | 26.66 ± 0.59 | –
65 K | 28.97 ± 0.64 | –
66.28 K | 29.55 ± 0.59 | –
70 K | 31.26 ± 0.69 | –
73.59 K | 32.72 ± 0.66 | –
75 K | 33.49 ± 0.74 | –
80 K | 35.67 ± 0.79 | –
81.69 K | 36.3 ± 0.73 | –
85 K | 37.77 ± 0.83 | –
90 K | 39.9 ± 0.88 | –
90.72 K | 40.16 ± 0.8 | –
95 K | 42.03 ± 0.93 | –
100 K | 44.11 ± 0.97 | –
100.73 K | 44.09 ± 0.88 | –
110 K | 48.06 ± 1.1 | –
110.86 K | 47.98 ± 0.96 | –
120 K | 51.77 ± 1.1 | –
120.94 K | 51.73 ± 1 | –
130 K | 55.28 ± 1.2 | –
131.04 K | 55.47 ± 1.1 | –
140 K | 58.62 ± 1.3 | –
141.13 K | 58.97 ± 1.2 | –
150 K | 61.85 ± 1.4 | –
151.25 K | 62.31 ± 1.2 | –
160 K | 64.98 ± 1.4 | –
161.4 K | 65.71 ± 1.3 | –
170 K | 68.05 ± 1.5 | –
171.44 K | 68.87 ± 1.4 | –
180 K | 71.06 ± 1.6 | –
181.6 K | 71.84 ± 1.4 | –
190 K | 74.02 ± 1.6 | –
191.71 K | 74.76 ± 1.5 | –
200 K | 76.93 ± 1.7 | –
201.83 K | 77.69 ± 1.6 | –
210 K | 79.79 ± 1.8 | –
211.94 K | 80.42 ± 1.6 | –
220 K | 82.59 ± 1.8 | –
222.06 K | 83.12 ± 1.7 | –
230 K | 85.33 ± 1.9 | –
232.15 K | 85.84 ± 1.7 | –
240 K | 88 ± 1.9 | –
242.24 K | 88.09 ± 1.8 | –
250 K | 90.6 ± 2 | –
252.28 K | 90.69 ± 1.8 | –
260 K | 93.11 ± 2 | –
262.36 K | 92.91 ± 1.9 | –
270 K | 95.55 ± 2.1 | –
272.53 K | 95.97 ± 1.9 | –
273.15 K | 96.3 ± 2.1 | –
280 K | 97.9 ± 2.2 | –
282.61 K | 99.14 ± 2 | –
290 K | 100.17 ± 2.2 | –
292.62 K | 101.41 ± 2 | –
298.15 K | 101.96 ± 2.2 | –
300 K | 102.35 ± 2.2 | –
302.73 K | 102.84 ± 2.1 | –
